Marks after values point to notes of the source that are not given here. Peptide text beside a SMILES is read from it.

Here are results for two compounds from patent US12102685B2, “Immodulator peptides covalently modified with small molecules” (priority 2020, dated 2024).

Test [1] has as its system rat scald model. Kind of test: Rat scald model, N-terminally modified nephrilin-iron complexes (x5B). Format: in vivo, Sprague Dawley rats. The conditions noted are these: male rats, burn, 2 mg/kg peptide complexed with ferric iron, sc days 1-7. How it is done: Effect of N-terminal modifications on the efficacy of nephrilin IM3N1 peptide in the rat scald model. In this study, five nephrilin-iron binary complexes were compared: IM3N1 (unmodified) and the following: IM3N1vlp (valproic acid), IM3N1dec (decanoic acid), IM3N1fen (fenofibric acid), and IM3N1ibu (ibuprofen). Adult male Sprague Dawley rats (300 gm, Charles River Laboratories, Wilmington, MA, USA) were injected with peptides formulated with equimolar metal ferric iron once daily by subcutaneous bolus injection, days 1-7.
Treatment group sizes were (n=6) for each group: group S=sham-treated; group B=burn+vehicle; group N1=burn+2 mg/kg nephrilin IM3N1; group N1V=burn+2 mg/kg IM3N1vlp; group N1D=burn+2 mg/kg IM3N1dec; group N1F=burn+2 mg/kg IM3N1fen; group N1I=burn+2 mg/kg IM3N1ibu. The first dose was administered after completion of the scald procedure. Injection volume was 400 uL. Control animals received the same volume of vehicle. Rat scald model was performed and measurements taken as described in Experiment x5A.

Test [2] has as its system rat scald model. Kind of test: Rat scald model, study effects (Table x7A). Format: in vivo. Conditions: burn + IM3N1 4 mg/kg sc once daily for seven days; n=3.
Test [3] is described as follows: Alexa488-SA-labelled IM3 binding to metal-charged NTA-coated plate (x2B c). How it is done: NTA-metal-affinity fluorescence assay was performed using 96-well NTA-metal-coated plates readily available from commercial sources such as Qiagen (Germantown, MD). NTA was charged with ferrous or ferric iron, zinc, copper, calcium, vanadium, ruthenium, cobalt, titanium, manganese or other metals. 400 ng of FITC-labeled immodulator peptide (or biotinylated immodulator peptide complexed to Alexa-488-labeled streptavidin) in PBS buffer was added per plate. After incubation at room temperature for 60 minutes, excess peptide was washed off and peptide was detected by measuring fluorescence (excitation 490 nm, emmission 525 nm) in a fluorometer. • (a) Using FITC-labeled IM3 peptide (1 ug/well) in the fluorescent binding assay: • EDTA-treated control: 2,251±1,186 • Ferrous iron: 170,441±11,264 (p<0.001)* • Copper: 13,644±5566 (p<0.05)* • Calcium: 48,822±11,990 (p<0.01)* • *p values are relative to EDTA-treated control • (b) Competition binding assay to ferrous iron, calcium, copper and zinc-charged NTA-coated plates using FITC-labeled IM3 peptide (0.5 uM) and 8× (4 uM) unlabelled competitor peptides IM3N1, IM3N2 (*all comparisons to PBS control are p<0.01); # fluorescent value of binding to […] was set at 100.
• (c) Alexa488-SA-labelled immodulator peptide IM3 (400 ng/well) bound to NTA-coated plate charged with the indicated metals: # fluorescent value of binding to ferrous iron was set at 100. *p<0.01 relative to control.
Ferrous iron # (100±2.6*); Control (no metal): 6.4±3.1; Ferric iron: 94.1±6.6*; Calcium: 47.6±3.7*; Vanadium: 53.9±5.5*; Manganese: 54.4±11.2*; Cobalt: 25.4±2.3*; Copper: 58.4±6.4*; Zinc: 71.4±8.3*; Ruthenium: 67.8±8.3*; (d) Alexa488-SA-labelled immodulator peptide IM1, IM2, IM3, IM4, IM5, IM6 (400 ng/well) were bound to NTA-coated plate charged with the indicated metals: # background (no peptide) control set to 1.0;*p<0.05, **p<0.01 vs “no peptide”

Test [4] relates to STING. Kind of test: THP1-Dual monocyte reporter, STING readout (x4A). Format: cell-based. How it is done:
Immune modulation functions of immodulator peptides were measured using the monocyte reporter cell line THP1-Dual (Invivogen, San Diego, CA), which provides convenient readouts for STING and NF-kappa-B pathways. Optionally, succinic acid, cytokine and chemokine production were also measured. THP1-Dual cell line was obtained from Invivogen. Cells were grown in a T-75 flask in RPMI Medium containing 20% fetal bovine serum, blasticidin ([…]), zeocin ([…]) and penicillin-streptomycin at 37° C. in a humidified, 5% CO2 incubator. Cells ([…], 8,000 cells/well) were plated in a 96-well plate and incubated overnight at 37 °C in a humidified, 5% CO2 incubator. Next day, […] of compounds were added (quadruplicate wells). After 24 hour incubation with the compound, supernatants were harvested and stored at 4° C. prior to assay.
Each cell supernatant was assayed in quadruplicate. 20 uL of supernatant was used to measure NF-kappa-B (NFkB) and
STING activity using reagents QuantiBlu and QuantiLuc respectively, according to the manufacturer's recommendations (Invivogen, San Diego, CA). Succinic acid was measured by using a kit from Megazyme Inc (Cambridge, MA). Control value of activity was set to 100 in each assay. […] PAM3C=25 ng/ml PAM3CSK4 (TLR1/2 inducer); Poly(I:C)=10 ug/ml (TLR3 inducer); PAM2C=25 ng/ml PAM2CSK4 (TLR2/6 inducer); KIN14=4 uM KIN-1400 (RIG-I inducer); cytB=1 uM cytosporone B (Nur77 inducer); C-178=1 uM STING inhibitor; NFkBi=50 ug/ml NFkB inhibitor peptide; SB2021=10 uM p38MAPK inhibitor; *p<0.05, **p<0.01 vs IM3 control; #p<0.01 vs “no inducer” control; SUCC=succinic acid; nd=not done; Peptide was added to cells at 400 nM.
Peptides were added to cells at 400 nM. […]

Regarding “RGVTEDYLRLETLVQKVVSKGFYKKKQCRPSKGRKRGFCW [IM3N1]”, in test [1], the “1: early inflammation (24-hr plasma IL-6)” value was 38.5 ± 27.8 pg/mL, the “2a: 14-day plasma inflammasome marker IL18” value came out at 220.4 ± 32.1 pg/mL, the “2b: 14-day plasma inflammasome marker IL1b” value stood at 52.9 ± 7.8 pg/mL and the “3a: 14-day plasma hyperangiogenesis marker VEGF-A” value is 37.8 ± 15.3 pg/mL. Besides, in test [1], the “3b: 14-day plasma hyperangiogenesis marker CCL5” value was determined as 248.3 ± 29.7 pg/mL; the “3c: 14-day plasma hyperangiogenesis marker CXCL5” value was 855 ± 233 pg/mL; the “4: glycemic control, 14-day GTT (AUC)” value was determined as 136.4 ± 69.2 mg·dL·h; the “5: kidney function, 14-day plasma creatinine” value came to 0.31 ± 0.09 mg/dL. In addition, in test [1], the “6: systemic oxidative stress, 14-day plasma OHDG” value turned out to be 374 ± 187 pg/mL; the “7: weight loss (slope)” value is recorded as 2.99 ± 0.53; the “3d: hyperangiogenesis marker PctRedPix” value is 6.53 ± 3.16. Further, in test [2], the “Glycemic Control (GTT AUC)” value was found to be 69.0 ± 18.1 mg·dL·h; the “Kidney Function (eGFR, calculated)” value is recorded as 1.29 ± 0.32; the “Lean Body Mass (DEXA)” value is 328.5 ± 5.1; the “Urinary 8-isoprostate” value was found to be 4.53 ± 1.21 ng/pg cystatin.
Consider `N=C(N)NCCC[C@H](NC(=O)CNC(=O)[C@H](CCCCN)NC(=O)[C@H](CO)NC(=O)[C@@H]1CCCN1C(=O)[C@H](CCCNC(=N)N)NC(=O)[C@H](CS)NC(=O)[C@H](CCC(N)=O)NC(=O)[C@H](CCCCN)NC(=O)[C@H](CCCCN)NC(=O)[C@H](CCCCN)NC(=O)[C@H](Cc1ccc(O)cc1)NC(=O)[C@H](Cc1ccccc1)NC(=O)CNC(=O)[C@H](CCCCN)NC(=O)[C@@H](N)CCCCN)C(=O)N[C@@H](CCCCN)C(=O)N[C@@H](CCCNC(=N)N)C(=O)NCC(=O)N[C@@H](Cc1ccccc1)C(=O)N[C@@H](CS)C(=O)N[C@@H](Cc1c[nH]c2ccccc12)C(=O)O` [IM3] (H-KKGFYKKKQCRPSKGRKRGFCW-OH; N-terminus and C-terminus assumed), for which the fluorescence came to 47.6±3.7 in test [3] (Calcium, ferrous iron = 100); 25.4±2.3 in test [3] (Cobalt, ferrous iron = 100); 6.4±3.1 in test [3] (Control (no metal), ferrous iron = 100); 58.4±6.4 in test [3] (Copper, ferrous iron = 100); 94.1±6.6 in test [3] (Ferric iron, ferrous iron = 100); 100±2.6 in test [3] (Ferrous iron, set at 100, 400 ng/well). The fluorescence in test [3] (Manganese, ferrous iron = 100) was determined as 54.4±11.2; in test [3] (Ruthenium, ferrous iron = 100) it was 67.8±8.3; in test [3] (Vanadium, ferrous iron = 100) it was 53.9±5.5; in test [3] (Zinc, ferrous iron = 100), 71.4±8.3. For the same compound, the STING in test [4] (peptide 400 nM + KIN1400 (= 100)) was 100; in test [4] (peptide 400 nM + KIN1400 + C-178 1 uM), 81.1**; in test [4] (peptide 400 nM + KIN1400 + NFkBi 50 ug/ml), 105.0; in test [4] (peptide 400 nM + KIN1400 + SB2021 10 uM) it was 75.6**; in test [4] (peptide 400 nM + KIN1400 + cytB 1 uM) it was 87.5*; in test [4] (peptide 400 nM + PAM2C (= 100)), 100. Also, the STING in test [4] (peptide 400 nM + PAM2C + C-178 1 uM) is listed as 62.0**; in test [4] (peptide 400 nM + PAM2C + NFkBi 50 ug/ml), 119.1*; in test [4] (peptide 400 nM + PAM2C + SB2021 10 uM) it was 18.9**; in test [4] (peptide 400 nM + PAM2C + cytB 1 uM), 96.5; in test [4] (peptide 400 nM + PAM3C + C-178 1 uM), 566**; in test [4] (peptide 400 nM + PAM3C + NFkBi 50 ug/ml) it was 1294**. Also, the STING in test [4] (peptide 400 nM + PAM3C + SB2021 10 uM) is recorded as 274**; in test [4] (peptide 400 nM + PAM3C + cytB 1 uM) it was 1318**; in test [4] (peptide 400 nM + PAM3C, control = 100), 1474; in test [4] (peptide 400 nM, no inducer, control = 100), 91**.
